Among the data in US20250011288A1 (BRISTOL-MYERS SQUIBB COMPANY, priority 2021, published 2025) are EC50 values, retold here.

As usually defined, the EC50 is the concentration that produces a half-maximal response.

For the assay, the target named is T1, human RXFP1 (Homo sapiens, UniProt Q9HBX9).
T1 construct: expressed in transfected cells
T1 sequence (Q9HBX9 1-757): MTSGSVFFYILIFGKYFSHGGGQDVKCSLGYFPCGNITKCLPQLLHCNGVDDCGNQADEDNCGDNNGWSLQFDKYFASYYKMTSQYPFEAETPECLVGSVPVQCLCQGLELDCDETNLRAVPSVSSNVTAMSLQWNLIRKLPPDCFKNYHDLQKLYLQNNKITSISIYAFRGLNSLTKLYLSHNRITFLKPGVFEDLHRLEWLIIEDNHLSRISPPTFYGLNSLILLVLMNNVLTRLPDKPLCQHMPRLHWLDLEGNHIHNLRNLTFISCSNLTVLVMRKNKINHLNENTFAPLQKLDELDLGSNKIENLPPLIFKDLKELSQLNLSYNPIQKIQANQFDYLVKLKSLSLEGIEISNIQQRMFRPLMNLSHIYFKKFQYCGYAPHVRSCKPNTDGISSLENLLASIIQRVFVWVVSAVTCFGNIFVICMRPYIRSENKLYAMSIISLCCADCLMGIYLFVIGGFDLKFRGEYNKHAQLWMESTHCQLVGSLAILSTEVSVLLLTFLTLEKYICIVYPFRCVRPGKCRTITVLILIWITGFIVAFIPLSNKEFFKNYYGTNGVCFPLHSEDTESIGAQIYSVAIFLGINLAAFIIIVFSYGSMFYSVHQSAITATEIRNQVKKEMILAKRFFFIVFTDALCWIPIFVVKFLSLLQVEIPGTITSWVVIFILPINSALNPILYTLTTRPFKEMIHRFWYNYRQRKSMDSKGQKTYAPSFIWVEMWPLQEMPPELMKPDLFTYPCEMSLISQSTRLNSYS
Kind of assay: human RXFP1 (hRXFP1) HEK293 cAMP assay (HTRF). It is filed as cell-based. To be noted: HEK293 cells stably expressing human RXFP1, 30 min at room temperature. The procedure, abridged:
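Intracellular cAMP was quantified by HTRF after a 30 min room-temperature exposure of hRXFP1-HEK293 cells (1500/well) to compound at 0.010 nM–50 µM final, 2% DMSO. Buffer was HBSS with 20 mM HEPES, 0.05% BSA and 0.5 mM IBMX; values came from a 4-parameter logistic fit.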
Background: cAMP levels reflect the balance of adenylyl cyclase and phosphodiesterase activity.
On to `COc1ncc(C2=NOC3CC(C(OC(=O)Nc4ccccc4)C4CC4)CC23)cc1C(=O)N[C@@H]1C2CCC(/C2=C/C2CC(F)(F)C2)[C@@H]1C(=O)Nc1ccc(F)c(C(F)(F)F)c1` (stereo partly drawn) [Example 160, cyclopropyl[3-(5-{[(2R,3S,7Z)-7-1(3,3-difluorocyclobutyl)methylidene]-3-{[4-fluoro-3-(trifluoromethyl)phenyl]carbamoyl}bicyclo[2.2.1]heptan-2-yl]carbamoyl}-6-methoxypyridin-3-yl)-3aH,4H,5H,6H, 6aH-cyclopenta[d][1,2] oxazol-5-yl]methyl N-phenylcarbamate], for which a half-maximal effect (EC50) was put at 8.4 nM. The compound `COc1ncc(C2=NOC3CC(C(O)C4CC4)CC23)cc1C(=O)N[C@H]1[C@@H](C(=O)Nc2ccc(F)c(C(F)(F)F)c2)[C@H]2CC[C@@H]1/C2=C\C1CC1` (stereo partly drawn) [Example 111, 5-(5-(cyclopropyl (hydroxy)methyl)-3a,5,6,6a-tetrahydro-4H-cyclopenta[d]isoxazol-3-yl)-N-((1R,2R,3S,4R,Z)-7-(cyclopropyl-methylene)-3-((4-fluoro-3-(trifluoromethyl)phenyl)carbamoyl)bicyclo[2.2.1]heptan-2-yl)-2-methoxynicotinamide] had an EC50 of 3.6 nM.

In turn, `COc1ncc(C2=NOC3CC(C(OC(=O)NC4CCC4)C4CC4)CC23)cc1C(=O)N[C@@H]1C2CCC(/C2=C/C2CC(F)(F)C2)[C@@H]1C(=O)Nc1ccc(F)c(C(F)(F)F)c1` (stereo partly drawn) [Example 161, cyclopropyl[3-(5-{[(2R,3S,7Z)-7-[(3,3-difluorocyclobutyl)methylidene]-3-{[4-fluoro-3-(trifluoromethyl)phenyl]carbamoyl}bicyclo[2.2.1]heptan-2-yl]carbamoyl}-6-methoxypyridin-3-yl)-3aH,4H,5H,6H, 6aH-cyclopenta[d][1,2]oxazol-5-yl]methyl N-cyclobutylcar-bamate] returned an EC50 of 9 nM. For `COc1cc2c(cc1C(=O)N[C@@H]1C3CCC(/C3=C/C3CC3)[C@@H]1C(=O)Nc1ccc(F)c(C(F)(F)F)c1)CN(CCO)CC2` (stereo partly shown) [Example 94], a half-maximal response (EC50) required 1200 nM. For `COc1ncc(-c2c(C)nn3c2COCC3)cc1C(=O)N[C@H]1[C@@H](C(=O)Nc2ccc(F)c(C(F)(F)F)c2)[C@H]2CC[C@@H]1/C2=C\C1CCCC1` [Example 150, N-[(1R,2R,3S,4R, 7Z)-7-(cyclopentyl-methylidene)-3-{[4-fluoro-3-(trifluoromethyl)phenyl]carbamoyl}bicyclo[2.2.1]heptan-2-yl]-2-methoxy-5-{2-methyl-4H,6H,7H-pyrazolo[3,2-c][1,4]oxazin-3-yl}pyridine-3-carboxamide] the value was 5.3 nM; for `COc1ncc(-c2cc(C(=O)O)ccc2F)cc1C(=O)N[C@@H]1C2CCC(/C2=C/c2ccccc2)[C@@H]1C(=O)Nc1ccc(F)c(C(F)(F)F)c1` (stereo partly drawn) [Example 25, 4-Fluoro-3-(5-{[(2R,3S,7Z)-3-{[4-fluoro-3-(trifluoromethyl)phenyl]carbamoyl}-7-(phenylmethylidene)bicyclo[2.2.1]heptan-2-yl]carbamoyl}-6-methoxypyridin-3-yl)benzoic acid], 33 nM.

As for `CC(O)C1CC2ON=C(c3cc4c(c(C(=O)N[C@H]5[C@@H](C(=O)N[C@H](C)C6(C)CC6)[C@H]6CC[C@@H]5/C6=C\C5CC5)c3)OC(C)(C)C4)C2C1` (stereo partly drawn) [Example 176, N-[(1R,2R,3S,4R, 7Z)-7-(cyclopropyl-methylidene)-3-{[(1R)-1-(1-methylcyclopropyl)ethyl]carbamoyl}bicyclo[2.2.1]heptan-2-yl]-5-[5-(1-hydroxyethyl)-3aH,4H,5H,6H, 6aH-cyclopenta[d][1,2]oxazol-3-yl]-2,2-dimethyl-2,3-dihydro-1-benzofuran-7-carboxamide], the EC50 is 6 nM. The compound `O=C(NC1CCC1)O[C@@H](c1ccc(F)c(-c2cc(C(=O)N[C@@H]3C4CCC(/C4=C/C(F)(F)F)[C@@H]3C(=O)Nc3ccc(F)c(C(F)(F)F)c3)c(OCCO)cn2)c1)C(F)(F)F` (stereo partly drawn) [Example 46, (1S)-2,2,2-trifluoro-1-[4-fluoro-3-(4-{[(2R,3S,7Z)-3-{[4-fluoro-3-(trifluoromethyl)phenyl]carbamoyl}-7-(2,2,2-trifluoroethylidene)bicyclo[2. 2.1]heptan-2-yl]carbamoyl}-5-(2-hydroxyethoxy)pyridin-2-yl)phenyl]ethyl N-cyclobutyl-carbamate] returned an EC50 of 65 nM. As for `COc1ncc(-c2cnc3n2CC(O)CC3)cc1C(=O)N[C@H]1[C@@H](C(=O)Nc2ccc(F)c(C(F)(F)F)c2)[C@H]2CC[C@@H]1/C2=C\C1CC1` (stereo partly drawn) [Example 104, N-((1R,2R,3S,4R,Z)-7-(cyclopropyl-methylene)-3-((4-fluoro-3-(trifluoromethyl)phenyl)carbamoyl)bicyclo[2.2.1]heptan-2-yl)-5-(6-hydroxy-5,6,7,8-tetrahydroimidazo[1,2-a]pyridin-3-yl)-2-methoxynicotinamide], the EC50 came to 4 nM.

Turning to `O=C(N[C@@H]1C2CCC(/C2=C/C2CC2)[C@@H]1C(=O)Nc1ccc(F)c(C(F)(F)F)c1)c1cncc(C2=NOC3COCC23)c1` (single isomer, unassigned) [Example 63], the EC50 was found to be 120 nM. For `CC1Cc2cc(C3=NOC4CC(O)CC34)cc(C(=O)N[C@H]3[C@@H](C(=O)Nc4ccc(F)c(C(F)(F)F)c4)[C@H]4CC[C@@H]3/C4=C\C3CC3)c2O1` (stereo partly drawn) [Example 154, N-[(1R,2R,3S,4R, 7Z)-7-(cyclopropyl-methylidene)-3-{[4-fluoro-3-(trifluoromethyl)phenyl]carbamoyl}bicyclo[2.2.1]heptan-2-yl]-5-{5-hydroxy-3aH,4H,5H,6H, 6aH-cyclopenta[d][1, 2]oxazol-3-yl}-2-methyl-2,3-dihydro-1-benzofuran-7-carboxamide] the value was 4.1 nM. In turn, `COc1cc2c(cc1C(=O)N[C@H]1[C@@H](C(=O)Nc3ccc(F)c(C(F)(F)F)c3)[C@H]3CC[C@@H]1/C3=C\C1CC1)CN(C(=O)OC(C)(C)C)CC2` [Example 82, tert-butyl 7-(((1R,2R,3S,4R,Z)-7-(cyclopropylmethylene)-3-((4-fluoro-3-(trifluoromethyl)phenyl)carbamoyl)bicyclo[2.2.1]heptan-2-yl)carbamoyl)-6-methoxy-3,4-dihydroisoquinoline-2(1H)-carboxylate] showed an EC50 of 660 nM. As for `COc1nn(-c2cccc(C(=O)O)c2)cc1C(=O)N[C@@H]1C2CCC(/C2=C/C(F)(F)F)[C@@H]1C(=O)Nc1ccc(F)c(C(F)(F)F)c1` (stereo partly drawn) [Example 53, 3-(4-{[(2R,3S,7Z)-3-{[4-fluoro-3-(trifluoromethyl)phenyl]carbamoyl}-7-(2,2,2-trifluoroethylidene)bicyclo[2.2.1]heptan-2-yl]carbamoyl}-3-methoxy-1H-pyrazol-1-yl)benzoic acid], the EC50 stood at 1600 nM.

For the compound `COc1ncc(C(=O)NCC2(S(C)(=O)=O)CC2)cc1C(=O)N[C@H]1[C@@H](C(=O)N[C@H](C)C2(C)CC2)[C@H]2CC[C@@H]1/C2=C\C1CC1` [Example 149, N3-[(1R,2R,3S,4R, 7Z)-7-(cyclopropyl-methylidene)-3-{[(1R)-1-(1-methylcyclopropyl)ethyl]carbamoyl}bicyclo[2.2.1]heptan-2-yl]-N5-[(1-methanesulfonylcyclopropyl)methyl]-2-methoxypyridine-3,5-dicarboxamide], a half-maximal effect (EC50) was put at 2.7 nM. For `COc1ncc(C2=NOC3CC(CO)CC23)cc1C(=O)N[C@@H]1C2CCC(/C2=C/C2CC2)[C@@H]1C(=O)Nc1ccc(F)c(C(F)(F)F)c1` (single isomer, unassigned) [Example 69] the value was 1.5 nM. To `COc1cc2c(cc1C(=O)N[C@@H]1C3CCC(/C3=C/C3CC3)[C@@H]1C(=O)Nc1ccc(F)c(C(F)(F)F)c1)CCN(S(C)(=O)=O)C2` (stereo partly shown) [Example 93] belongs 1700 nM.

`COc1ncc(-c2cc([C@H](OC(=O)NC3CC3)C(F)(F)F)ccc2F)cc1C(=O)N[C@@H]1C2CCC(/C2=C/C2CCCC2)[C@@H]1C(=O)Nc1ccc(F)c(C(F)(F)F)c1` (stereo partly drawn) [Example 164, (1S)-1-[3-(5-{[(1R,2R,3S,4R, 7Z)-7-(cyclopentyl-methylidene)-3-{[4-fluoro-3-(trifluoromethyl)phenyl]carbamoyl}bicyclo[2.2.1]heptan-2-yl]carbamoyl}-6-methoxypyridin-3-yl)-4-fluorophenyl]-2,2,2-trifluoroethyl N-cyclopropylcar-bamate]: a half-maximal response (EC50) required 1.4 nM. For `O=C(N[C@@H]1C2CCC(/C2=C/C(F)(F)F)[C@@H]1C(=O)Nc1ccc(F)c(C(F)(F)F)c1)c1cnn2c(C(F)F)cc(Cl)cc12` (stereo partly shown) [Example 13] the value was 1700 nM; for `COc1ccc(-c2cc([C@H](OC(=O)Nc3ccccc3)C(F)(F)F)ccc2F)nc1C(=O)N[C@@H]1C2CCC(/C2=C/C(F)(F)F)[C@@H]1C(=O)Nc1ccc(F)c(C(F)(F)F)c1` (stereo partly drawn) [Example 39, (1S)-2,2,2-trifluoro-1-14-fluoro-3-(6-{[(2R,3S,72)-3-{[4-fluoro-3-(trifluoromethyl)phenyl]carbamoyl}-7-(2,2,2-trifluoro-ethylidene)bicyclo[2. 2.1]heptan-2-yl]carbamoyl}-5-methoxypyridin-2-yl)phenyl]ethyl N-phenylcarbamate], 110 nM.
